Test results as given in patent US20190315823A1, “SMALL CATIONIC ANTI-BIOFILM AND IDR PEPTIDES” (priority 2013, published 2019).
Peptide text beside a SMILES is read from it.

What was measured:
[1] = system: human peripheral blood mononuclear cells; type: cell-based
Method: FIG. 18. Lack of cytotoxicity of immunomodulatory peptides against human peripheral blood mononuclear cells as determined by the low release of cytosolic lactate dehydrogenase.
Venous blood (20 ml) from healthy volunteers was collected in Vacutainer® collection tubes containing sodium heparin as an anticoagulant (Becton Dickinson, Mississauga, ON) in accordance with UBC ethical approval and guidelines. Blood was diluted 1:1 with complete RPMI 1640 medium and separated by centrifugation over a Ficoll-Paque® Plus (Amersham Biosciences, Piscataway, N.J., USA) density gradient. White blood cells were isolated from the buffy coat, washed twice in RPMI 1640 complete medium, and the number of peripheral blood mononuclear cells (PBMC) was determined by Trypan blue exclusion. PBMC (5×10^5) were seeded into 12-well tissue culture dishes (Falcon; Becton Dickinson) at 0.75 to 1×10^6 cells/ml at 37° C. in 5% CO2. The above conditions were chosen to mimic conditions for circulating blood monocytes entering tissues at the site of infection via extravasation.
Following incubation of the cells under various treatment regimens, the tissue culture supernatants were centrifuged at 1000×g for 5 min, then at 10,000×g for 2 min to obtain cell-free samples. […]
Cytotoxicity was assessed using the Lactate dehydrogenase assay. […] Amount of colour formed is detected as increased absorbance measured at […]. […]

[2] = system: Klebsiella pneumoniae (Kp) biofilm; type: cell-based; details: peptide 10 μg/ml
Method: Methods of assessment of anti-biofilm activity—Biofilm formation was initially analyzed using a static abiotic solid surface assay as described elsewhere (de la Fuente-Nunez et al., 2012). Dilutions (1/100) of overnight cultures were incubated in BM2 biofilm-adjusted medium [62 mM potassium phosphate buffer (pH 7), 7 mM (NH4)2SO4, 2 mM MgSO4, 10 μM FeSO4, 0.4% (wt/vol) glucose, 0.5% (wt/vol) Casamino Acids], or a nutrient medium such as Luria Broth, in polypropylene microtiter plates (Falcon, United States) in the absence (control) or presence of peptide. Peptide was added at time zero (prior to adding the diluted, overnight cultures) in varying concentrations, and the decrease in biofilm formation was recorded at 22-46 h for most bacteria. Planktonic cells were removed, biofilm cells adhering to the side of the tubes were stained with crystal violet, and absorbance at 595 nm was measured using a microtiter plate reader (Bio-Tek Instruments Inc., United States). Some peptides were screened against two Gram negative organisms, P. aeruginosa and K. pneumoniae using a Bioflux apparatus (AutoMate Scientific, Berkeley, Calif.; http://www.autom8.com/bioflux_biofilm.html), which allows for the high-throughput, real-time analysis of biofilms.

C. elegans = C. elegans survival, uninfected (peptide toxicity); details: peptide 20 μg/ml
Method: The C. elegans survival assay was carried out as previously described (Brackman et al., 2011). […] 0.5 ml of this suspension of nematodes was transferred to the wells of a 24-well microtiter plate. An overnight bacterial culture was centrifuged, resuspended in the assay medium, and standardized to 10^8 CFU/ml. Next, 250 μl of this standardized suspension were added to each well, while 250 μl of sterile medium was added to the […]. Peptides were added to the test wells at a final concentration of 20 μg/ml. The assay plates were incubated at 25° C. for up to 2 days. The fraction of dead worms was determined by counting the number of dead worms and the total number of worms in each well, using a dissecting microscope. Peptides were tested at least four times in each assay, and each assay was repeated at least three times (n≥12).

[3] = system: methicillin resistant S. aureus (Sa) biofilm; type: cell-based, Staphylococcus aureus; details: peptide 5 μg/ml
S. aureus biofilm = type: cell-based; details: concentration that reduced biofilm growth by 50%
P. aeruginosa biofilm = type: cell-based; details: concentration that reduced biofilm growth by 50%
G. mellonella = G. mellonella survival, uninfected (peptide toxicity); type: in vivo; details: peptide 20 μg/10 μl
Method: In brief, prior to injection in G. mellonella, bacterial cells were washed with PBS and then diluted to either 10^4 or 10^5 CFU per 10 μl. A Hamilton syringe was used to inject 10 μl in the G. mellonella last left proleg. The peptides (20 μg/10 μl) were administered by injecting 10 μl into a different proleg within 1 h after injecting the bacteria. Two control groups were used: the first group included uninfected larvae injected with PBS to monitor killing due to physical trauma; the second group included uninfected larvae receiving no treatment at all. Results from experiments in which one or more larvae in either control group died were discarded and the experiments were repeated. To evaluate the toxicity of the peptides, uninfected larvae were injected with peptides. Larvae were placed in the dark at 37° C. and were scored as dead or alive 24 h and 48 h post-infection. […] At least 20 larvae were injected for each treatment. For each treatment, data from at least six independent experiments were combined.

P. aeruginosa biofilms = details: compound alone; P. aeruginosa
[4] = system: Pseudomonas aeruginosa (Pa) biofilm; assay: static abiotic solid surface (microtiter, crystal violet) / Bioflux biofilm inhibition screen; type: cell-based; details: peptide 10 μg/ml
Outline: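 Overnight cultures diluted 1/100 were grown in polypropylene microtiter plates in BM2 medium (pH 7, 0.4% glucose, 0.5% Casamino Acids) or Luria Broth, with peptide at varying concentrations added at time zero. After 22-46 h, adherent biofilm was stained with crystal violet and read at 595 nm. Selected peptides were also screened under flow in a Bioflux system.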

P. aeruginosa = details: de la Fuente-Núñez 2012; cited from earlier work
[5] = system: Pseudomonas aeruginosa (Pa) biofilm; details: P. aeruginosa; de la Fuente-Núñez 2012; cited from earlier work

With `CC[C@H](C)[C@H](NC(=O)[C@H](CC(C)C)NC(=O)[C@@H](NC(=O)[C@H](CCCNC(=N)N)NC(=O)[C@@H](NC(=O)[C@@H](NC(=O)[C@H](CCCNC(=N)N)NC(=O)[C@H](CCCNC(=N)N)NC(=O)[C@@H](N)C(C)C)[C@@H](C)CC)C(C)C)C(C)C)C(=O)N[C@@H](CCCNC(=N)N)C(=O)N[C@@H](Cc1c[nH]c2ccccc12)C(=O)N[C@@H](C)C(N)=O` [HE8] (H-VRRIVRVLIRWA-NH2) as the molecule, how does the “Notes (toxicity)” value [1] read?
The value was “Toxic”.

Which results are given for `CC[C@H](C)[C@H](NC(=O)[C@H](CCCNC(=N)N)NC(=O)[C@@H](NC(=O)[C@H](C)NC(=O)[C@@H](NC(=O)[C@@H](NC(=O)[C@H](CC(C)C)NC(=O)[C@H](CCCNC(=N)N)NC(=O)[C@@H](N)C(C)C)[C@@H](C)CC)C(C)C)C(C)C)C(=O)N[C@@H](Cc1c[nH]c2ccccc12)C(=O)N[C@@H](CCCNC(=N)N)C(=O)N[C@@H](CCCNC(=N)N)C(N)=O` [Peptide 1018] (H-VRLIVAVRIWRR-NH2)?
% Biofilm Inhibition Kp [2]: 99%; C. elegans survival, No infection (C. elegans; 24 h): 97 ± 4%; C. elegans survival, No infection (C. elegans; 48 h): 88 ± 9%; % Biofilm Inhibition Sa [3]: 67%; MBIC50 S. aureus (S. aureus biofilm): 20 µg/mL; MBIC50 P. aeruginosa (P. aeruginosa biofilm): 2.5 µg/mL; G. mellonella survival, No infection (G. mellonella; 24 h): 90 ± 14%; G. mellonella survival, No infection (G. mellonella; 48 h): 90 ± 14%; Minimal Biofilm Inhibitory Concentration (MBIC) (P. aeruginosa biofilms): 24 µg/mL; % Biofilm Inhibition Pa [4]: 99%

For `CC[C@H](C)[C@H](NC(=O)[C@H](CCCNC(=N)N)NC(=O)[C@H](Cc1ccccc1)NC(=O)[C@H](CCCNC(=N)N)NC(=O)[C@@H](N)CCCCN)C(=O)N[C@@H](CCCNC(=N)N)C(=O)N[C@H](C(=O)N[C@@H](CCCNC(=N)N)C(=O)N[C@H](C(N)=O)C(C)C)C(C)C` [Peptide 1037] (H-KRFRIRVRV-NH2; N-terminus assumed), which “antimicrobial activity MIC” value (P. aeruginosa) is on record?
Its value is 304 µg/mL.

What about the “anti-biofilm activity IC50” value [5] of the same molecule?
Its value is 5 µg/mL.
